# Data from ChEMBL document CHEMBL1136566, “Synthesis, opioid receptor binding, and functional activity of 5'-substituted 17-cyclopropylmethylpyrido[2',3':6,7]morphinans” (Bioorg Med Chem Lett, 2003).
# Legend:
# [1] = biological target: Opioid receptors; mu & delta (Rattus norvegicus) (UniProt P33533+P33535); assay: Selectivity ratio was measured between mu and delta opioid receptor; format: protein assay
# [2] = Selectivity ratio was measured between kappa and delta opioid receptor
# [3] = Selectivity ratio between delta and mu opioid receptor in corresponding mouse vas-deferens and guinea-pig ileal longitudinal muscle; format: functional
# [4] = biological target: T1, Kappa-type opioid receptor (Cavia porcellus, UniProt P41144); assay: Antagonist activity on agonist stimulated [35S]GTP-gamma-S, binding in guinea pig caudate membranes (10 uM U69,593 as the agonist ligand for kappa-receptor); format: functional, cell membranes
# T1 sequence (P41144 whole entry): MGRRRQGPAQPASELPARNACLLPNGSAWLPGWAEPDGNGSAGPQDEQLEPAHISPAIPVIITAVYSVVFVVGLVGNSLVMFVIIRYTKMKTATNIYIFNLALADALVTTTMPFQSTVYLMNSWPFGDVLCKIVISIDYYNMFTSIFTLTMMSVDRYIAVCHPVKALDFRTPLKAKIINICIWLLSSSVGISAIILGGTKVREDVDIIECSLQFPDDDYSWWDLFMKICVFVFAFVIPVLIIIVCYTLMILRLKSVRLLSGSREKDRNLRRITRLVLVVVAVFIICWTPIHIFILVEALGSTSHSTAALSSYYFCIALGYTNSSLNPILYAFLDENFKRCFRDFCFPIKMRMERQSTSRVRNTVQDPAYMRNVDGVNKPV
# Mu-type opioid receptor [5] = biological target: T2, Mu-type opioid receptor (Cavia porcellus, UniProt P97266); assay: Antagonist activity on agonist stimulated [35S]GTP-gamma-S, binding in guinea pig caudate membranes (10 uM DAMGO as the agonist ligand for mu-receptor); format: functional, cell membranes
# T2 sequence (P97266 whole entry): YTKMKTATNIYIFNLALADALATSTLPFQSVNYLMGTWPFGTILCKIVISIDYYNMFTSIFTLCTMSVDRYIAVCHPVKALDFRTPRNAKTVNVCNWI
# [6] = biological target: Delta-type opioid receptor (Mus musculus) (UniProt P32300); assay: Antagonist potency against delta opioid receptor was measured in mouse vas-deferens using DPDPE; format: functional
# Chain of Delta-type opioid receptor (Mus musculus) (P32300 whole entry): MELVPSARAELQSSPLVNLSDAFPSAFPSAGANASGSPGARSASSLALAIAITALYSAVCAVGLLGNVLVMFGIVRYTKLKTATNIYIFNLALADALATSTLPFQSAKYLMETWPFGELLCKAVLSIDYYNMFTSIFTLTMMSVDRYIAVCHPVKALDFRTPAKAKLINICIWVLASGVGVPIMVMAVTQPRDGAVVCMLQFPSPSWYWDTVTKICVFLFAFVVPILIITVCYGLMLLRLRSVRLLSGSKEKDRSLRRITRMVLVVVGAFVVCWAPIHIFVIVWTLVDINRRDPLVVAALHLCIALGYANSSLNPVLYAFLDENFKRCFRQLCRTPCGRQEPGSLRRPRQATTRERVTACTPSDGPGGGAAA
# [7] = biological target: T1, Kappa-type opioid receptor; assay: Binding affinity for kappa opioid receptor was measured using [3H]U-69593
# [8] = biological target: Mu-type opioid receptor (Cavia porcellus) (UniProt P97266); assay: Antagonist potency against mu opioid receptor was measured in guinea-pig ileal longitudinal muscle using PL-017; format: functional
# Chain of Mu-type opioid receptor (Cavia porcellus) (P97266 whole entry): as the sequence (P97266 whole entry) above
# Mu-type opioid receptor [9] = biological target: Mu-type opioid receptor (Rattus norvegicus, UniProt P33535); assay: Binding affinity to mu opioid receptor was measured using [3H]DAMGO
# Chain of Mu-type opioid receptor (Rattus norvegicus, UniProt P33535) (P33535 whole entry): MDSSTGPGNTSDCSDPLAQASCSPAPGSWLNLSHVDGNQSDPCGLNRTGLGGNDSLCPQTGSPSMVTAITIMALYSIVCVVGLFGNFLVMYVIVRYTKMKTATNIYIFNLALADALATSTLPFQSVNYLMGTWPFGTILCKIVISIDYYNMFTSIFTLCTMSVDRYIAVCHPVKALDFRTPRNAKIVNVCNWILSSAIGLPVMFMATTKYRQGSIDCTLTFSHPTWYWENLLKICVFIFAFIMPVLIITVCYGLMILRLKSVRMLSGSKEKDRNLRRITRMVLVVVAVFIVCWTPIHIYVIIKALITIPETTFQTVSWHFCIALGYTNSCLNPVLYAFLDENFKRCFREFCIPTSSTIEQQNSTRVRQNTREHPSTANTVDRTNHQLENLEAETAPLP
# [10] = biological target: Delta-type opioid receptor (Rattus norvegicus, UniProt P33533); assay: Binding affinity to delta opioid receptor was measured using [3H]DADLE
# Chain of Delta-type opioid receptor (P33533 whole entry): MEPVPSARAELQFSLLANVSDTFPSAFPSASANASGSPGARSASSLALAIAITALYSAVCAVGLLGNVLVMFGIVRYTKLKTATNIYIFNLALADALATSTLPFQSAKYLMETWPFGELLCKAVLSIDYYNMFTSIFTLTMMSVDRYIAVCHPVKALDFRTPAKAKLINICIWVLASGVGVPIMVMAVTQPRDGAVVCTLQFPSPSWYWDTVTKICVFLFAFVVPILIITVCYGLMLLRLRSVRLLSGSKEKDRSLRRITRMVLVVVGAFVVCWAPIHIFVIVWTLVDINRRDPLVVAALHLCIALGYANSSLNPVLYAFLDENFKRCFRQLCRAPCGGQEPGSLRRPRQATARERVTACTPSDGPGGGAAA
# Mu-type opioid receptor [11] = biological target: T2, Mu-type opioid receptor; assay: Antagonist activity on agonist stimulated [35S]GTP-gamma-S, binding in guinea pig caudate membranes (10 uM DAMGO as the agonist ligand for Mu-receptor); format: functional, cell membranes
# Chain of Opioid receptors; mu & delta (Rattus norvegicus) (P33533 whole entry, looked up): as the sequence (P33533 whole entry) above
# Chain of Opioid receptors; mu & delta (Rattus norvegicus) (P33535 whole entry, looked up): as the sequence (P33535 whole entry) above
SMILES,Selectivity ratio [1],Selectivity ratio [2],Selectivity ratio [3],Ki [4] [nM],Ki (Mu-type opioid receptor [5]) [nM],Ke [6] [nM],Ki [7] [nM],Ke [8] [nM],Ki (Mu-type opioid receptor [9]) [nM],Ki [10] [nM],Ki (Mu-type opioid receptor [11]) [nM]
Oc1ccc2c3c1O[C@H]1c4ncccc4C[C@@]4(O)[C@@H](C2)N(CC2CC2)CC[C@]314,1.9,11,5.1,,,,,,,,
Oc1ccc2c3c1O[C@H]1c4[nH]c5c(c4C[C@@]4(O)[C@@H](C2)N(CC2CC2)CC[C@]314)C[C@@]1(O)[C@H]2Cc3ccc(O)c4c3[C@@]1(CCN2CC1CC1)[C@H]5O4 [NORBINALTORPHIMINE],,,,0.12,14.8,,,,,,
Oc1ccc2c3c1O[C@H]1c4ncc(CNc5ccccc5)cc4C[C@@]4(O)[C@@H](C2)N(CC2CC2)CC[C@]314,3.3,10.6,0.9,,,6.5,19,5.9,6,1.8,
Oc1ccc2c3c1O[C@H]1c4[nH]c5ccccc5c4C[C@@]4(O)[C@@H](C2)N(CC2CC2)CC[C@]314 [NALTRINDOLE],,,,6,1.8,0.53,,,,,
Nc1cnc2c(c1)C[C@@]1(O)[C@H]3Cc4ccc(O)c5c4[C@@]1(CCN3CC1CC1)[C@H]2O5,1.6,1.5,1.9,,,25,,48,,,
O=[N+]([O-])c1cnc2c(c1)C[C@@]1(O)[C@H]3Cc4ccc(O)c5c4[C@@]1(CCN3CC1CC1)[C@H]2O5,3.2,17,3.8,,,53,92,200,17.5,5.5,
Oc1ccc2c3c1O[C@H]1c4ncc(-n5cccc5)cc4C[C@@]4(O)[C@@H](C2)N(CC2CC2)CC[C@]314,30,19,,8.8,,6.6,12.2,62,19,0.64,4.2
CCOC(=O)c1cnc2c(c1)C[C@@]1(O)[C@H]3Cc4ccc(O)c5c4[C@@]1(CCN3CC1CC1)[C@H]2O5,,,4.4,,,,,,,,
N=C(N)Nc1cnc2c(c1)C[C@@]1(O)[C@H]3Cc4ccc(O)c5c4[C@@]1(CCN3CC1CC1)[C@H]2O5,1.4,0.037,,1,,170,0.7,500,26,18.7,6.1
Oc1ccc2c3c1O[C@H]1c4ncc(Br)cc4C[C@@]4(O)[C@@H](C2)N(CC2CC2)CC[C@]314,12.9,46,10,,,3.6,55.7,36,15.5,1.2,
N#Cc1cnc2c(c1)C[C@@]1(O)[C@H]3Cc4ccc(O)c5c4[C@@]1(CCN3CC1CC1)[C@H]2O5,3.6,7.5,>22,,,44,33.9,> 1000,16,4.5,
Oc1ccc2c3c1O[C@H]1c4ncc(NCc5ccccc5)cc4C[C@@]4(O)[C@@H](C2)N(CC2CC2)CC[C@]314,11.5,5.2,0.9,,,6.5,6.7,5.9,15,1.3,
